Laboratory results published in patent publication US4713453A, “Oxabicycloheptane derivatives” (Suntori Limited, priority 1986, dated 1987).

What was measured:
Male ddY mice = test: Anti-cerebroischemic effect (brain protection after ischemia by decapitation): gasping time; format: in vivo, mouse (male ddY); conditions: intraperitoneal, 30 min before decapitation
Description: 1. Anti-cerebroischemic effect (i.e., brain protection after ischemia by decapitation)
Male ddY mice weighing 22-30 g were used in groups each consisting of 6 animals. Test compounds were administered intraperitoneally to the mice which were decapitated 30 minutes after the administration. The gasping time, or the duration of time between the onset of panting after decapitation and its cessation, was measured, and this was compared with the gasping time for a control group which were given only a liquid vehicle.

peroxylipid formation = test: Anti-lipidperoxidation effect (TBA assay of malondialdehyde in rat brain homogenate); format: biochemical, rat (male Wistar); conditions: for Inhibition of peroxylipid formation: 10 μl (10^-4 M) test compound in 990 μl sample, 37° C., 30 minutes, pH 7.4; for anti-lipidperoxidation effects: rat brain homogenate
Description: 3. Anti-lipidperoxidation effect
Male Wistar rats weighing 200-250 g were used. The brain of each rat was extracted after decapitation, homogenized with 50 mM of a phosphate buffer solution (PBS, pH 7.4) and centrifuged at 1,000 g for 15 minutes. The supernatant was stored frozen at -30° C. Before use, it was thawed under flowing water and diluted with PBS three-fold to prepare a live sample.
Two samples were prepared by adding 10 μl (10^-4 M) of a test compound in solution to 990 μl of the live sample. One sample was incubated at 37° C. for 30 minutes and reaction was quenched by addition of 0.2 ml of 35% aqueous perchloric acid. The other sample was immediately mixed with 35% perchloric acid without incubation. Each of the mixtures was centrifuged at 3,000 rpm for 15 minutes and 0.5 ml of the supernatant was subjected to TBA assay (Yagi et al., Anal. Biochem., 95, 351 (1979)) for determining the malondialdehyde (MDA) content (×10^-4 M) by subtracting the peroxylipid level for the unincubated mixture from that for the incubated mixture. The percent inhibition of peroxylipid formation was calculated by the following formula: [formula] where A is the MDA content of a treated sample and B is the value for a control sample that was not treated with any test compound.

| SMILES | prolongation of gasping time (Male ddY mice; 25 mg/kg) | Inhibition of peroxylipid formation (peroxylipid formation) [%] | anti-lipidperoxidation effects (peroxylipid formation) | prolongation of gasping time (Male ddY mice; 12.5 mg/kg) |
| --- | --- | --- | --- | --- |
| CN(C)CCON=C1c2ccccc2OC2(c3ccccc3)CC12 (centres unmarked) [Example 1, 3,4-Benzo-5-(2-dimethylaminoethyl)oxyimino-1-phenyl-2-oxabicyclo[4.1.0]heptane] | significantly prolonging the gasping time | 56.9 |  |  |
| CN(C)CCON=C1c2ccc(Cl)cc2OC2(c3ccccc3)CC12 (centres unmarked) [Example 8, 3,4-(3-Chlorobenzo)-5-(2-dimethylaminoethyl)oxaimino-1-phenyl-2-oxabicyclo[4.1.0]heptane] | significantly prolonging the gasping time | 90.2 | strong anti-lipidperoxidation effects |  |
| CN(C)CCCON=C1c2ccc(Cl)cc2OC2(c3ccccc3)CC12 (centres unmarked) [Example 9] | significantly prolonging the gasping time | 82.7 | strong anti-lipidperoxidation effects |  |
| CN(C)CCCON=C1c2ccc(Cl)cc2OC2(c3ccc([N+](=O)[O-])cc3)CC12 (centres unmarked) [Example 12, 3,4-(3-Chlorobenzo)-5-(3-dimethylaminopropyl)oxyimino-1-(4-nitrophenyl)-2-oxabicyclo[4.1.0]heptane] |  | 99.0 | strong anti-lipidperoxidation effects |  |
| CCN(CC)CCCON=C1c2ccccc2OC2(c3ccccc3)CC12 (centres unmarked) [Example 16] |  | 83.3 | strong anti-lipidperoxidation effects |  |
| CN(C)CCCCON=C1c2ccccc2OC2(c3ccccc3)CC12 (centres unmarked) [Example 19, 3,4-Benzo-5-(4-dimethylaminobutyl)oxyimino-1-phenyl-2-oxabicyclo[4.1.0]heptane] |  | 52.6 |  |  |
| CNCCCCON=C1c2ccccc2OC2(c3ccccc3)CC12 (centres unmarked) [Example 20, 3,4-Benzo-5-(4-methylaminobutyl)oxyimino-1-phenyl-2-oxabicyclo[4.1.0]heptan] | significantly prolonging the gasping time |  |  |  |
| CN(C)CCCOC1c2ccccc2OC2(c3ccccc3)CC12 (centres unmarked) [Example 24, 3,4-Benzo-5-(3-dimethylaminopropyl)oxy-1-phenyl-2-oxabicyclo[4.1.0]heptane] | significantly prolonging the gasping time |  |  | significant prolongation of the gasping time |
| CN(C)CCOC1c2ccc(Cl)cc2OC2(c3ccccc3)CC12 (centres unmarked) [Example 26, 3,4-(3-Chlorobenzo)-5-(2-dimethylaminoethyl)oxy-1-phenyl-2-oxabicyclo[4.1.0]heptane] | significantly prolonging the gasping time | 79.1 |  |  |
| CN(C)CCCOC1c2ccc(Cl)cc2OC2(c3ccccc3)CC12 (centres unmarked) [Example 27, 3,4-(3-Chlorobenzo)-5-(3-dimethylaminopropyl)oxy-1-phenyl-2-oxabicyclo[4.1.0]heptane] | significantly prolonging the gasping time | 62.0 |  | significant prolongation of the gasping time |
| CN(C)CCCON=C1c2ccc(O)cc2OC2(c3ccccc3)CC12 (centres unmarked) [Example 34, 3,4-(3-Hydroxybenzo)-5-(3-dimethylaminopropyl)oxyimino-1-phenyl-2-oxabicyclo[4.1.0]heptane] |  | 79.9 |  |  |
| CN(C)CCCOC1c2ccc(O)cc2OC2(c3ccccc3)CC12 (centres unmarked) [Example 35, 3,4-(3-Hydroxybenzo)-5-(3-dimethylaminopropyl)oxy-1-phenyl-2-oxabicyclo[4.1.0]heptane] |  | 69.0 |  |  |
